Results as given in PMC9138102, “The Role of ZIP9 and Androgen Receptor in the Establishment of Tight Junctions between Adult Rat Sertoli Cells” (Biology, 2022).
Where two headings read alike, the source gives them in different places.

Assays:
ZO-1 = ZO-1 expression in PASC1 cells, immunofluorescence; type: cell-based, rat; conditions: 10 nM testosterone or 10 µM IAPG, 24 h, n = 3 × 25
Method: PASC1 cells were plated at a density of 3.0 × 10^4 on 24-well plates (1 mL/well) and incubated 48 h at 37 °C and 5% CO2 until a confluence of roughly 80% was reached. […] Cells were then washed with DPBS three times for 5 min, and then incubated in blocking solution (PBS with 3% BSA and 0.3% Triton X-100, both from Sigma-Aldrich) for 1 h at room temperature. The blocking solution was replaced by fresh blocking solution containing the primary antibodies for detection of either AR, p-Erk1/2, p-CREB/p-ATF-1, claudin-1 (Cldn-1), or zonula occludens-1 (ZO-1) (Supplementary Table S1) and incubated overnight at 4 °C. Cells were washed 3 times with DPBS for 3 min each at RT on an orbital shaker, freshly made blocking solution with the appropriate Alexafluor 488-conjugated donkey anti-rabbit secondary antibody was added for 1 h at room temperature on an orbital shaker. After washing 3 times with DPBS, images were obtained using an inverse Olympus IX81 microscope equipped with a fluorescence system. […] The data obtained were analyzed by GraphPad Prism5 (GraphPad Software, Inc., La Jolla, CA, USA).
(§1) For silencing ZIP9 or AR expression, PASC1 cells were treated with commercially available siRNA directed against the expression of ZIP9 or the AR by following the manufacturer’s protocol (Silencer ® Select, siRNA Invitrogen, Darmstadt, Germany). The following oligonucleotides were used: 5′ […]tt3′ and 5′ […]ta 3′ (ZIP9-siRNA for ZIP9 silencing) and 5′[…]tt3′ plus 5′ […]ag 3′ (AR-siRNA for AR silencing). Negative control siRNA (nc-siRNA) was provided in the siRNA kit from the same manufacturer. After incubation of PASC1 for 48 h with ZIP9-siRNA, AR-siRNA, or nc-siRNA, preparation of samples for qRT-PCR, TER measurement, or immunofluorescence experiments were carried out as described above.

Cldn-1 = Cldn-1 expression in PASC1 cells, immunofluorescence; type: cell-based, rat; conditions: 10 nM testosterone or 10 µM IAPG, 24 h, n = 3 × 25
Method: PASC1 cells were plated at a density of 3.0 × 10^4 on 24-well plates (1 mL/well) and incubated 48 h at 37 °C and 5% CO2 until a confluence of roughly 80% was reached. Cells were rinsed with DPBS and fixed with 100% ice-cold methanol (Roth, Karlsruhe, Germany) on ice for 10 min directly or after stimulation with vehicle, 10 nM testosterone, or 1 µM P1 for 24 h. Cells were then washed with DPBS three times for 5 min, and then incubated in blocking solution (PBS with 3% BSA and 0.3% Triton X-100, both from Sigma-Aldrich) for 1 h at room temperature. The blocking solution was replaced by fresh blocking solution containing the primary antibodies for detection of either AR, p-Erk1/2, p-CREB/p-ATF-1, claudin-1 (Cldn-1), or zonula occludens-1 (ZO-1) (Supplementary Table S1) and incubated overnight at 4 °C. Cells were washed 3 times with DPBS for 3 min each at RT on an orbital shaker, freshly made blocking solution with the appropriate Alexafluor 488-conjugated donkey anti-rabbit secondary antibody was added for 1 h at room temperature on an orbital shaker. After washing 3 times with DPBS, images were obtained using an inverse Olympus IX81 microscope equipped with a fluorescence system. […] The data obtained were analyzed by GraphPad Prism5 (GraphPad Software, Inc., La Jolla, CA, USA).
as §1

AR = AR nuclear translocation in PASC1 cells (immunofluorescence); type: cell-based, rat; conditions: 2 h
Method: PASC1 cells were plated at a density of 3.0 × 10^4 on 24-well plates (1 mL/well) and incubated 48 h at 37 °C and 5% CO2 until a confluence of roughly 80% was reached. Cells were rinsed with DPBS and fixed with 100% ice-cold methanol (Roth, Karlsruhe, Germany) on ice for 10 min directly or after stimulation with vehicle, 10 nM testosterone, or 1 µM P1 for 24 h. Cells were then washed with DPBS three times for 5 min, and then incubated in blocking solution (PBS with 3% BSA and 0.3% Triton X-100, both from Sigma-Aldrich) for 1 h at room temperature. The blocking solution was replaced by fresh blocking solution containing the primary antibodies for detection of either AR, p-Erk1/2, p-CREB/p-ATF-1, claudin-1 (Cldn-1), or zonula occludens-1 (ZO-1) (Supplementary Table S1) and incubated overnight at 4 °C. […] After washing 3 times with DPBS, images were obtained using an inverse Olympus IX81 microscope equipped with a fluorescence system. A total of 30 cells from 3 independent experiments (30 × 3) localized closest to the diagonals of the square optical field were selected and the manually surrounded green fluorescence was quantified by ImageJ (available at http://rsbweb.nih.gov/ij/, last accessed 28 February 2022) following the protocol of the software provider.

CREB/ATF-1 = assay: p-CREB/p-ATF-1 immunofluorescence in PASC1 cells after AR or ZIP9 silencing; type: cell-based, rat; conditions: 10 nM testosterone or 10 µM IAPG, 24 h, n = 3 × 25
[1] = system: androgen binding site ZIP9 of the Sertoli cell line 93RS2; set-up: method as in PMID 35053053, PMID 35053017; conditions: 93RS2 / L6 (cell line not separately stated); cited from earlier work
PASC1 cells = assay: Transepithelial electrical resistance (TER) across PASC1 cell layers; type: cell-based, rat; conditions: 10 nM testosterone or 10 µM IAPG, 0, 24, 48, 72 h, n = 6, means ± SEM
Method: TER measurements were performed as described. Briefly, 6.0 × 10^4 cells/cm^2 of androgen receptor (AR)- or ZIP9-knockdown PASC1 or non-treated PASC1 cells were seeded on 0.4 μm inserts of 24-well plates (Greiner bio one, Frickenhausen, Germany) and cultured for 48 h until they reached confluence. […] As testosterone was dissolved in ethanol (vehicle), the same volume of ethanol was added to the peptide-treated cells and untreated controls. TER measurements were made with a Millicell ERS-2 epithelial Volt-Ohm meter (Merck Millipore, Darmstadt, Germany). ΩXcm^2 was calculated according to the protocol of the manufacturer by setting the resistance of cell-free inserts to zero.
as §1

Erk1/2 = system: Erk1/2; set-up: method as in PMID 35053053; conditions: Sertoli cell line 93RS2, cited from earlier work
Source text: Activation of Erk1/2 by phosphorylation occurs in the so-called non-classical signaling pathway of testosterone.

JAM-3-specific mRNA = assay: JAM-3 mRNA expression in PASC1 cells, qRT-PCR; type: cell-based, rat; conditions: 10 nM testosterone or 10 µM IAPG, 24 h, n = 3 × 2
Method: Primers were designed with http://www.ncbi.nlm.nih.gov/tools/primer-blast (Accessed on 28 February 2022) and were all intron-spanning. Total RNA was isolated from PASC1 with the RNeasy Mini-Kit (Qiagen, Hilden, Germany) and subjected to DNase I treatment as described by the manufacturer. The Reverse Transcription-System first strand cDNA synthesis kit (Invitrogen, Darmstadt, Germany) was used for cDNA synthesis, as recommended. Quantitative real-time PCR (qRT-PCR) amplification was performed in duplicate with iQ TM SYBR Green Super-mix (Bio-Rad; Munich; Germany) on the iCycler iQ System (Bio-Rad). After an initial heating at 94 °C for 5 min, 40 amplification cycles were performed consisting of an initial denaturation of the DNA double strands at 94 °C for 14 s, an annealing phase of the primers at 59 °C for 30 s, and extension of the primers for 15 s at 72 °C. A finalizing extension at 72 °C was carried out for 10 min. Gene expression was measured after reaching the ct value and calculated using the Delta–Delta Ct method. Detection of GAPDH-specific mRNA/cDNA served as normalization of the quantification. Oligonucleotides used in the qRT-PCR, their annealing position, and the expected size of the amplificates are listed in Supplementary Table S2.
as §1

| Molecule | Stimulated ZO-1 fluorescence, nc-siRNA versus AR-siRNA (ZO-1) | ZO-1 expression (fluorescence signal) (ZO-1; ZIP9-siRNA) | ZO-1 expression (fluorescence signal) (ZO-1; nc-siRNA) | Cldn-1 expression (Cldn-1; AR-siRNA) | Cldn-1 expression (Cldn-1; ZIP9-siRNA) | Cldn-1 expression (Cldn-1; nc-siRNA) | AR localization / translocation into the nucleus (AR; testosterone 10 nM) | CREB/ATF-1 phosphorylation (CREB/ATF-1; AR-siRNA) | CREB/ATF-1 phosphorylation (CREB/ATF-1; ZIP9-siRNA) | CREB/ATF-1 phosphorylation (CREB/ATF-1; nc-siRNA) | Prevention of T-BSA-FITC binding [1] | TJ formation (TER) (PASC1 cells; AR-siRNA) | TJ formation (TER) (PASC1 cells; ZIP9-siRNA) | TJ formation (TER) (PASC1 cells; nc-siRNA) | Concentration for maximum Erk1/2 phosphorylation (Erk1/2; testosterone) [µM] | JAM-3 mRNA expression (JAM-3-specific mRNA; AR-siRNA) | JAM-3 mRNA expression (JAM-3-specific mRNA; ZIP9-siRNA) | JAM-3 mRNA expression (JAM-3-specific mRNA; nc-siRNA) | AR localization / translocation into the nucleus (AR; IAPG 10 µM) | Concentration for maximum Erk1/2 phosphorylation (Erk1/2; IAPG) [µM] |
| --- | --- | --- | --- | --- | --- | --- | --- | --- | --- | --- | --- | --- | --- | --- | --- | --- | --- | --- | --- | --- |
| C[C@]12CC[C@H]3[C@@H](CCC4=CC(=O)CC[C@@]43C)[C@@H]1CC[C@@H]2O [testosterone] | not significantly different | The ZO-1 fluorescence was unchanged by the ligands | the ZO-1-corresponding signal was significantly intensified | stimulated the expression of Cldn-1 | failed to do so | stimulated the expression of Cldn-1 | all green fluorescence was found within the nuclei | to the same extent as cells treated with nc-siRNA | failed to stimulate phosphorylation of CREB/ATF-1 | stimulated CREB/ATF-1 phosphorylation | Its binding can be prevented | had the same effect | failed to stimulate TJ formation | tighter TJ than the control already after 1 day of treatment, as demonstrated by increased TER | 0.01 | upregulated | remained at basal levels | upregulated | – | – |
| IAPG | not significantly different | The ZO-1 fluorescence was unchanged by the ligands | the ZO-1-corresponding signal was significantly intensified | stimulated the expression of Cldn-1 | failed to do so | stimulated the expression of Cldn-1 | – | to the same extent as cells treated with nc-siRNA | failed to stimulate phosphorylation of CREB/ATF-1 | stimulated CREB/ATF-1 phosphorylation | Its binding can be prevented | had the same effect | failed to stimulate TJ formation | tighter TJ than the control already after 1 day of treatment, as demonstrated by increased TER | – | upregulated | remained at basal levels | upregulated | A translocation of the AR from the cytosol into the nucleus did not occur | 10 |
